Measured values published in paper PMC4770307, “New Synthetic Routes to Triazolo-benzodiazepine Analogues: Expanding the Scope of the Bump-and-Hole Approach for Selective Bromo and Extra-Terminal (BET) Bromodomain Inhibition” (Journal of Medicinal Chemistry, 2015).

What was measured:
Brd2(1)W097F = target: T1, Brd2(1)W097F (Homo sapiens, UniProt P25440, W97F); assay: Differential scanning fluorimetry (DSF) thermal shift; assay type: binding; conditions: compound 10 μM (LightCycler480) or 30 μM (Mx3005P), read-out: Thermal stabilization (ΔTm)
T1 construct: first bromodomain (e.g., Brd2(1)) versus second bromodomain (e.g., Brd2(2)); His6 (TEV-cleavable) (N); made in house; host or cells: E. coli BL21(DE3)
T1 sequence (P25440 74-180 W97F limits assumed): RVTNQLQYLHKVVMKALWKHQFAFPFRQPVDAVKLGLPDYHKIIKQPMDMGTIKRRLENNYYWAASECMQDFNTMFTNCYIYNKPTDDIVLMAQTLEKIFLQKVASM

Brd2(2) [1] = target: T2, Brd2(2) (Homo sapiens, UniProt P25440); assay: as above; assay type: binding; conditions: compound 10 μM (LightCycler480) or 30 μM (Mx3005P), read-out: Thermal stabilization (ΔTm)
T2 construct: first bromodomain (e.g., Brd2(1)) versus second bromodomain (e.g., Brd2(2)); His6 (TEV-cleavable) (N); made in house; host or cells: E. coli BL21(DE3); plasmid a gift of the SGC Oxford
T2 sequence (P25440 344-453 limits assumed): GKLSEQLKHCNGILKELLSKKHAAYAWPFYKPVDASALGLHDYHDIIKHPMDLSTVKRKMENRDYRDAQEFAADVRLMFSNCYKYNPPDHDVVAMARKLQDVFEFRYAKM

Brd2(1)W097H = target: T3, Brd2(1)W097H (Homo sapiens, UniProt P25440, W97H); assay: as above; assay type: binding; conditions: compound 10 μM (LightCycler480) or 30 μM (Mx3005P), read-out: Thermal stabilization (ΔTm)
T3 construct: first bromodomain (e.g., Brd2(1)) versus second bromodomain (e.g., Brd2(2)); His6 (TEV-cleavable) (N); made in house; host or cells: E. coli BL21(DE3)
T3 sequence (P25440 74-180 W97H limits assumed): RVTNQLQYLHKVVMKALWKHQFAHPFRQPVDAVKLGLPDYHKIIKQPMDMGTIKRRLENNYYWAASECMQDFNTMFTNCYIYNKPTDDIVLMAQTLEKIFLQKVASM

Brd2(2)W370H = target: T4, Brd2(2)W370H (Homo sapiens, UniProt P25440, W370H); assay: as above; assay type: binding; conditions: compound 10 μM (LightCycler480) or 30 μM (Mx3005P), read-out: Thermal stabilization (ΔTm)
T4 construct: first bromodomain (e.g., Brd2(1)) versus second bromodomain (e.g., Brd2(2)); His6 (TEV-cleavable) (N); made in house; host or cells: E. coli BL21(DE3)
T4 sequence (P25440 344-453 W370H limits assumed): as the sequence (P25440 344-453 limits assumed) above, with W27H counted along it

Brd2(1) [2] = target: T5, Brd2(1) (Homo sapiens, UniProt P25440); assay: as above; assay type: binding; conditions: compound 10 μM (LightCycler480) or 30 μM (Mx3005P), read-out: Thermal stabilization (ΔTm)
T5 construct: first bromodomain (e.g., Brd2(1)) versus second bromodomain (e.g., Brd2(2)); His6 (TEV-cleavable) (N); made in house; host or cells: E. coli BL21(DE3); plasmid a gift of the SGC Oxford
T5 sequence (P25440 74-180 limits assumed): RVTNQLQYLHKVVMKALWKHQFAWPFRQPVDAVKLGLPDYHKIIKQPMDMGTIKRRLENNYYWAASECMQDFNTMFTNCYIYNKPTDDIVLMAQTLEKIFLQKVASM

Brd2(2)W370F = target: T6, Brd2(2)W370F (Homo sapiens, UniProt P25440, W370F); assay: as above; assay type: binding; conditions: compound 10 μM (LightCycler480) or 30 μM (Mx3005P), read-out: Thermal stabilization (ΔTm)
T6 construct: first bromodomain (e.g., Brd2(1)) versus second bromodomain (e.g., Brd2(2)); His6 (TEV-cleavable) (N); made in house; host or cells: E. coli BL21(DE3)
T6 sequence (P25440 344-453 W370F limits assumed): as the sequence (P25440 344-453 limits assumed) above, with W27F counted along it

Brd4(1) = Brd4(1) (Homo sapiens, UniProt O60885); assay: Isothermal titration calorimetry (ITC); assay type: binding; conditions: ITC at 30 °C, […] DMSO
Brd4(2) = Brd4(2) (Homo sapiens, UniProt O60885); assay: Isothermal titration calorimetry (ITC); assay type: binding; conditions: ITC at 30 °C, […] DMSO
Brd2(2) [3] = assay: Isothermal titration calorimetry (ITC); assay type: binding; conditions: Brd2(2) over Brd2(1), from ITC Kd's
Brd2(2) [4] = target: T2, Brd2(2); assay: Isothermal titration calorimetry (ITC); assay type: binding
Brd2(1) [5] = target: T5, Brd2(1); assay: Isothermal titration calorimetry (ITC); assay type: binding
Brd2(2)L383A [6] = target: T7, Brd2(2)L383A (Homo sapiens, UniProt P25440, L383A); assay: Differential scanning fluorimetry (DSF) thermal shift; assay type: binding; conditions: compound 10 μM (LightCycler480) or 30 μM (Mx3005P), read-out: Thermal stabilization (ΔTm)
T7 construct: first bromodomain (e.g., Brd2(1)) versus second bromodomain (e.g., Brd2(2)); His6 (TEV-cleavable) (N); made in house; host or cells: E. coli BL21(DE3)
T7 sequence (P25440 344-453 L383A limits assumed): as the sequence (P25440 344-453 limits assumed) above, with L40A counted along it

[7] = test system: WT and mutant Brd2(1) and Brd2(2) proteins; assay: DSF, WT and mutant proteins (statements in words); assay type: binding; conditions: mutant compared with WT Brd2 proteins
Brd2(1)L110A [8] = target: T8, Brd2(1)L110A (Homo sapiens, UniProt P25440, L110A); assay: Differential scanning fluorimetry (DSF) thermal shift; assay type: binding; conditions: compound 10 μM (LightCycler480) or 30 μM (Mx3005P), read-out: Thermal stabilization (ΔTm)
T8 construct: first bromodomain (e.g., Brd2(1)) versus second bromodomain (e.g., Brd2(2)); His6 (TEV-cleavable) (N); made in house; host or cells: E. coli BL21(DE3)
T8 sequence (P25440 74-180 L110A limits assumed): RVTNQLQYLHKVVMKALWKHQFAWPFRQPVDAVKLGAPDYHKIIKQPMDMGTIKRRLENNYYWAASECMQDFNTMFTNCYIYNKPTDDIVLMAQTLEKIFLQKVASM

Brd2(2)L383I [9] = target: T9, Brd2(2)L383I (Homo sapiens, UniProt P25440, L383I); assay: as above; assay type: binding; conditions: compound 10 μM (LightCycler480) or 30 μM (Mx3005P), read-out: Thermal stabilization (ΔTm)
T9 construct: first bromodomain (e.g., Brd2(1)) versus second bromodomain (e.g., Brd2(2)); His6 (TEV-cleavable) (N); made in house; host or cells: E. coli BL21(DE3)
T9 sequence (P25440 344-453 L383I limits assumed): as the sequence (P25440 344-453 limits assumed) above, with L40I counted along it

Brd2(1)L110I [10] = target: T10, Brd2(1)L110I (Homo sapiens, UniProt P25440, L110I); assay: Isothermal titration calorimetry (ITC); assay type: binding; conditions: ITC at 25 °C
T10 construct: first bromodomain (e.g., Brd2(1)) versus second bromodomain (e.g., Brd2(2)); His6 (TEV-cleavable) (N); made in house; host or cells: E. coli BL21(DE3)
T10 sequence (P25440 74-180 L110I limits assumed): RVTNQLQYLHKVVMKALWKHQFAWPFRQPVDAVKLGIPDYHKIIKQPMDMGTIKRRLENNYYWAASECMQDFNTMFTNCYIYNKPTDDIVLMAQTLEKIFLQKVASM

Brd2(1)L110I [11] = target: T10, Brd2(1)L110I; assay: Differential scanning fluorimetry (DSF) thermal shift; assay type: binding; conditions: compound 10 μM (LightCycler480) or 30 μM (Mx3005P), read-out: Thermal stabilization (ΔTm)
Brd2(2)L383A [12] = target: T7, Brd2(2)L383A; assay: Isothermal titration calorimetry (ITC); assay type: binding; conditions: ITC at 25 °C
Brd2(1)L110A [13] = target: T8, Brd2(1)L110A; assay: Isothermal titration calorimetry (ITC); assay type: binding; conditions: ITC at 25 °C
Brd2(2)L383I [14] = target: T9, Brd2(2)L383I; assay: Isothermal titration calorimetry (ITC); assay type: binding; conditions: ITC at 25 °C
Brd2(2) [15] = conditions: reported Kd; cited from earlier work
[16] = test system: leucine/alanine mutant BET bromodomains; design: method as in PMID 25323695; conditions: cited from earlier work
Brd2(1)V103A = target: T11, Brd2(1)V103A (Homo sapiens, UniProt P25440, V103A); assay: Differential scanning fluorimetry (DSF) thermal shift; assay type: binding; conditions: compound 10 μM (LightCycler480) or 30 μM (Mx3005P), read-out: Thermal stabilization (ΔTm)
T11 construct: first bromodomain (e.g., Brd2(1)) versus second bromodomain (e.g., Brd2(2)); His6 (TEV-cleavable) (N); made in house; host or cells: E. coli BL21(DE3)
T11 sequence (P25440 74-180 V103A limits assumed): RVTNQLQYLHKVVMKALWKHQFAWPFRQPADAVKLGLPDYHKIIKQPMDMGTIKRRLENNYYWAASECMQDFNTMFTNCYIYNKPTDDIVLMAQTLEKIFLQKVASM

Brd2(2)V376A = target: T12, Brd2(2)V376A (Homo sapiens, UniProt P25440, V376A); assay: as above; assay type: binding; conditions: compound 10 μM (LightCycler480) or 30 μM (Mx3005P), read-out: Thermal stabilization (ΔTm)
T12 construct: first bromodomain (e.g., Brd2(1)) versus second bromodomain (e.g., Brd2(2)); His6 (TEV-cleavable) (N); made in house; host or cells: E. coli BL21(DE3)
T12 sequence (P25440 344-453 V376A limits assumed): as the sequence (P25440 344-453 limits assumed) above, with V33A counted along it

| SMILES | ΔTm at 10 µM (Brd2(1)W097F) [°C] | ΔTm at 10 µM (Brd2(2) [1]) [°C] | ΔTm at 10 µM (Brd2(1)W097H) [°C] | ΔTm at 10 µM (Brd2(2)W370H) [°C] | ΔTm at 10 µM (Brd2(1) [2]) [°C] | ΔTm at 10 µM (Brd2(2)W370F) [°C] | other results |
| --- | --- | --- | --- | --- | --- | --- | --- |
| COC(=O)CC1N=C(c2cc(C)ccc2C)c2cc(OC)ccc2-n2c(C)nnc21 (stereo not drawn) [compound 26] | 0.1 ± 0.2 | 3.5 ± 0.1 | -0.4 | -0.1 | 1.8 ± 0.2 | 0.6 ± 0.1 |  |
| COC(=O)CC1N=C(c2cccc3[nH]ccc23)c2cc(OC)ccc2-n2c(C)nnc21 (stereo not drawn) [compound 28] | 1.9 ± 0.5 | 7.7 ± 0.2 | 0.6 ± 0.3 | 2.7 ± 0.4 | 6.8 ± 0.6 | 5.2 ± 0.1 | Kd (Brd4(1)): 520 nM; Kd (Brd4(2)): 50 nM; selectivity for the second over the first bromodomain (Brd2(2) [3]): ca. 20 fold; Kd (Brd2(2) [4]; ITC at 30 °C, […] DMSO): 45 nM; Kd (Brd2(1) [5]; ITC at 30 °C, […] DMSO): 780 nM |
| COC(=O)[C@@H](C)[C@@H]1N=C(c2ccc(Cl)cc2)c2cc(OC)ccc2-n2c(C)nnc21 [compound 16] |  | 0.2 ± 0.2 |  |  | -0.3 |  | ΔTm at 10 µM (Brd2(2)L383A [6]): 0.8 ± 0.6 °C; thermal stabilization, in words [7]: did not induce a significant stabilization; ΔTm at 10 µM (Brd2(1)L110A [8]): 1.6 ± 0.2 °C; ΔTm at 10 µM (Brd2(2)L383I [9]): 0.3 ± 0.2 °C |
| COC(=O)CC1N=C(c2ccc(Cl)cc2C)c2cc(OC)ccc2-n2c(C)nnc21 (stereo not drawn) [compound 24] | 1.4 ± 0.2 | 6.6 ± 0.2 | 0.9 ± 0.3 | 1.1 ± 0.2 | 6.3 ± 0.1 | 2.8 ± 0.1 |  |
| COC(=O)[C@H](C)[C@@H]1N=C(c2ccc(Cl)cc2)c2cc(OC)ccc2-n2c(C)nnc21 [ME] |  | 5.6 ± 0.1 |  |  | 3.2 ± 0.2 |  | Kd (Brd2(1)L110I [10]): 260 ± 40 nM; ΔH (binding enthalpy) (Brd2(1)L110I [10]): –8.5 ± 0.1 kcal/mol; ΔTm at 10 µM (Brd2(2)L383A [6]): 9.3 ± 0.2 °C; Kd (Brd2(2) [4]; ITC at 25 °C): 300 ± 80 nM; ΔH (binding enthalpy) (Brd2(2) [4]; ITC at 25 °C): –5.4 ± 0.1 kcal/mol; ΔTm at 10 µM (Brd2(1)L110A [8]): 7.9 ± 0.2 °C; ΔTm at 10 µM (Brd2(1)L110I [11]): 5.7 ± 0.7 °C; ΔTm at 10 µM (Brd2(2)L383I [9]): 9.6 ± 0.1 °C; Kd (Brd2(2)L383A [12]): 22 ± 4 nM; ΔH (binding enthalpy) (Brd2(2)L383A [12]): –12.6 ± 0.1 kcal/mol; Kd (Brd2(1)L110A [13]): 17 ± 4 nM; ΔH (binding enthalpy) (Brd2(1)L110A [13]): –16.8 ± 0.2 kcal/mol; Kd (Brd2(2)L383I [14]): 27 ± 12 nM; ΔH (binding enthalpy) (Brd2(2)L383I [14]): –9.8 ± 0.1 kcal/mol; Kd (Brd2(1) [5]; ITC at 25 °C): 1470 ± 180 nM; ΔH (binding enthalpy) (Brd2(1) [5]; ITC at 25 °C): –8.6 ± 0.2 kcal/mol |
| COC(=O)CC1N=C(c2cc(Cl)ccc2Cl)c2cc(OC)ccc2-n2c(C)nnc21 (stereo not drawn) [compound 27] | 0 | 2.5 ± 0.2 | -0.4 | -0.4 | 1.2 ± 0.2 | 0.3 |  |
| CC(=O)NCCCCn1c2c(c3ccccc31)C(=O)NCC2 [olinone] |  |  |  |  |  |  | Kd (Brd2(2) [15]): > 300000 nM |
| CC[C@@H](C(=O)OC)[C@@H]1N=C(c2ccc(Cl)cc2)c2cc(OC)ccc2-n2c(C)nnc21 [ET (6)] |  |  |  |  |  |  | selectivity for L/A mutants relative to WT BET bromodomains, average ([16]; average across the entire subfamily): 160 fold; affinity for leucine/alanine mutant BET bromodomains ([16]; in words): low nanomolar affinity |
| COC(=O)CC1N=C(c2ccc(Cl)c(C)c2)c2cc(OC)ccc2-n2c(C)nnc21 (stereo not drawn) [compound 25] | -0.1 | 3.2 ± 0.1 | 0.2 ± 0.2 | 1 ± 0.3 | 1.5 ± 0.2 | 1.5 |  |
| COC(=O)CC1N=C(c2ccc(Cl)cc2)c2cc(OC)cc(C)c2-n2c(C)nnc21 (stereo not drawn) [compound 15] |  | 4 ± 0.1 |  |  | 0.7 ± 0.2 |  | ΔTm at 10 µM (Brd2(1)V103A): 0.5 ± 0.3 °C; ΔTm at 10 µM (Brd2(2)V376A): 1.2 ± 0.1 °C |
